Results published in patent US20200079766A1, “MONOCYCLIC OGA INHIBITOR COMPOUNDS” (Janssen Pharmaceutica NV, priority 2016, published 2020).

How the values were obtained:
[1] = target: T1, recombinant human Meningioma Expressed Antigen 5 (MGEA5), also referred to as O-GlcNAcase (OGA) (Homo sapiens, UniProt O60502); assay: OGA biochemical assay: inhibition of FM-GlcNAc hydrolysis, fluorescence; protocol A (10 nM OGA, 1 h) or protocol B (2 nM OGA, 6 h); settings: Enzymatic protocol B (2 nM OGA, 6 h); for IC50: read-out: Enzymatic hOGA, pIC50 (converted)
T1 construct: Full length OGA enzyme was purchased at OriGene (cat # TP322411); purchased OriGene TP322411
T1 sequence (O60502 1-916): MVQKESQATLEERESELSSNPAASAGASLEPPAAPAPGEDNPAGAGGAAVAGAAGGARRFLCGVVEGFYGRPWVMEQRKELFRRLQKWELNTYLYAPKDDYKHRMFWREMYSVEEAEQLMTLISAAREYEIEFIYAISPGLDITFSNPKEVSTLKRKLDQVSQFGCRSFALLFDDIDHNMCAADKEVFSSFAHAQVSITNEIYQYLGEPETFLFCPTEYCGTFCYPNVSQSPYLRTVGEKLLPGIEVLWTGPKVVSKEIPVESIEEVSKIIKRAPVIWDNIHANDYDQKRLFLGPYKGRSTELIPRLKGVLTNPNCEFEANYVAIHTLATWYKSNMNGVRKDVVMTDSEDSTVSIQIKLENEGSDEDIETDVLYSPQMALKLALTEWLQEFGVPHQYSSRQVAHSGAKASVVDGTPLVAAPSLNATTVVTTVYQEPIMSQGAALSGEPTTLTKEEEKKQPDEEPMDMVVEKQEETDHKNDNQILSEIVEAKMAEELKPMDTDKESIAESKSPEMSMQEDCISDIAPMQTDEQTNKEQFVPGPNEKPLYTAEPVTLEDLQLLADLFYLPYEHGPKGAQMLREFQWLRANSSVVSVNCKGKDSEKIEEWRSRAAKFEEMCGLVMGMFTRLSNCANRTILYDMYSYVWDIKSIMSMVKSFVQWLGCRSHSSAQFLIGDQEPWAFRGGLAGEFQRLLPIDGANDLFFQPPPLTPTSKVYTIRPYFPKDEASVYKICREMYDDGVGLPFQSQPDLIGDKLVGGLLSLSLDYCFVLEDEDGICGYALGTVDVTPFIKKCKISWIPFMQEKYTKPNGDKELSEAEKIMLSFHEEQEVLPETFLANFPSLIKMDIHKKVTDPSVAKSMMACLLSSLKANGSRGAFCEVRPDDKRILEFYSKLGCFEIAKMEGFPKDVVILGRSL
Outline: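 Full-length human OGA in 200 mM citrate/phosphate pH 7.2 with 0.005% Tween-20, compound pre-incubated 60 min at RT, then 100 uM FM-GlcNAc (final); 10 nM enzyme for 1 h or 2 nM for 6 h at RT. Stopped with pH 11.0 carbonate; fluorescein read at ex 485/em 538 nm. IC50 and Hill coefficient from curve fit.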

[2] = system: OGA in HEK293 cells inducible for P301L mutant human Tau (isoform 2N4R); assay: OGA cellular assay: immunocytochemical detection of O-GlcNAcylated proteins (CTD110.6 antibody) after 6 h incubation; type: cell-based; settings: Homo sapiens, HEK293, 6 h; for Emax: maximum = Thiamet G 200 uM; for EC50: read-out: Cellular hOGA, pEC50 (converted)
Outline: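 Low-glucose medium, 6 h compound exposure at 0.2% DMSO; cells PFA-fixed and O-GlcNAc ICC signal imaged at 488 nm (9 fields/well), Hoechst nuclei counted for toxicity. Thiamet G 200 uM on each plate as maximum; IC50 from non-linear regression.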

Emax [1] [%] | IC50 [1] [nM] | melting point [°C] | Structure (SMILES) | Emax [2] [%] | EC50 [2] [nM]
102 | 40.7 | 173.68 | CC(=O)Nc1ncc(CN2CCC(Cc3ccc(F)c(C)n3)C2)s1 (stereo not drawn) [compound 107] | 82 | 138
99.7 | 19.5 | 107.53 | CC(=O)Nc1ncc(CN2CCC(Cc3ccc(C)c(C)n3)C2)s1 (stereo not drawn) [compound 38] | 90.3 | 39.8
103 | 33.1 | 118.3 | CC(=O)Nc1ncc(CN2CCC(Cc3cncc(C)n3)C2)s1 (stereo not drawn) [compound 108] | 78.9 | 155
